From paper PMC11391452, “Fruits from Rosa roxburghii: A Valuable Bioresource of Potent Radical Scavengers and Novel Ursane-Type Triterpenoids” (ACS Omega, 2024)
“Also recorded” adds a separate entry of the source.

Tests used:
COX-2 = target: T1, COX-2 (Ovis aries, UniProt P79208); assay: COX (ovine) colorimetric inhibitor screening assay, COX-2; assay type: biochemical; conditions: for COX-2 inhibition, in words: in comparison to acetaminophen, Figure 3 A
T1 construct: purchased Cayman 760110
T1 sequence (P79208 17-603): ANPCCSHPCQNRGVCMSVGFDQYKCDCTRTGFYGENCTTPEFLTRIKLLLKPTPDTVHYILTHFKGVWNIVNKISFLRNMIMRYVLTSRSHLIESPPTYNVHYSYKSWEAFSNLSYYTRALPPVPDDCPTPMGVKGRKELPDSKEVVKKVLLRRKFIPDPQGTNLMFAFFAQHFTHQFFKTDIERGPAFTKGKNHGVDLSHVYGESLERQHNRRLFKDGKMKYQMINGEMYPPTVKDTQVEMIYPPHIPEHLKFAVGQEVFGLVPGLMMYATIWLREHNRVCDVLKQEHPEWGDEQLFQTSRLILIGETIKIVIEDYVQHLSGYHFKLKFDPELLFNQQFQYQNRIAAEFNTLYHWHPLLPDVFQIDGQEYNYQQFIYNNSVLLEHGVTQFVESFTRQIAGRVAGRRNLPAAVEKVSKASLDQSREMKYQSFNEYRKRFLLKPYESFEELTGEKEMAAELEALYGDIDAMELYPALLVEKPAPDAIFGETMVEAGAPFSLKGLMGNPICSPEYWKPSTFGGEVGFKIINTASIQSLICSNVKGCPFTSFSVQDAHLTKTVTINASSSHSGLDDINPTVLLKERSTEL
Description: (§1) Each compound was assayed in triplicate, and GraphPad Prism 8 software was used to calculate EC50 values. All statistical analyses were performed by Microsoft Excel.

COX-1 = target: T2, COX-1 (Ovis aries, UniProt P05979); assay: COX (ovine) colorimetric inhibitor screening assay, COX-1; assay type: biochemical; conditions: for COX-1 inhibition, in words: in comparison to acetaminophen, Figure 3 A
T2 construct: purchased Cayman 760110
T2 sequence (P05979 25-600): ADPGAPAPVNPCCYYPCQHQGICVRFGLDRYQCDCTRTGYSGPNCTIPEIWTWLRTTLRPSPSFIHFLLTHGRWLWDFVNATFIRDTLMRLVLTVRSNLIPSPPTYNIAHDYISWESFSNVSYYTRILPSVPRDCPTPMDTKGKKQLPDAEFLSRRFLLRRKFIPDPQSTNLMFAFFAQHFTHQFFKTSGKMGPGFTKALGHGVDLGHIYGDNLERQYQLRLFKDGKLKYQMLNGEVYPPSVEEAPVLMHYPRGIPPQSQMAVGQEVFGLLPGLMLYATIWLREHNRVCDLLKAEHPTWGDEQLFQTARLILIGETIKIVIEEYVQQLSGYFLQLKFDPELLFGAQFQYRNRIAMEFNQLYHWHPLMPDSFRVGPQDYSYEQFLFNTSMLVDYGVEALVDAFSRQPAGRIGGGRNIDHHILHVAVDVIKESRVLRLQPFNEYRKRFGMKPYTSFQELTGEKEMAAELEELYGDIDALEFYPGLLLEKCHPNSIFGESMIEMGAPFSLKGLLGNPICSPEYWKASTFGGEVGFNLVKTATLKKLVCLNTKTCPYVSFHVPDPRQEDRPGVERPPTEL
Description: as §1

[1] = DPPH radical scavenging capacity assay; conditions: for EC50 / DPPH EC50: pure compounds, 30 min, 517 nm, ascorbic acid positive control; for free radical scavenging effect in comparison to ascorbic acid, in words: DPPH assay
Description: The DPPH radical scavenging capacity assay was performed according to a previously described method with slight modifications.[34] Briefly, the tested compounds or extracts were dissolved in a small volume of DMSO to generate a 10 mM or 100 mg mL^–1 (for the extracts) stock solution and diluted to generate the final testing solution with methanol. The 0.2 mM fresh DPPH methanol solution was prepared daily. The 90 μL of methanolic solution of DPPH was added to 60 μL of tested compound solution with different concentrations (or 60 μL of methanol as blank) in 96-well plates and allowed to react for 30 min at ambient temperature in the dark. The absorbance (OD) was measured at 517 nm on an Infinite M200 Pro (Tecan, Austria) microplate reader. The level of the DPPH• scavenging activity was calculated as [drawing 1] The EC50 values were calculated by using GraphPad Prism 8 software 4.6.

HepG2 cells = assay: Hepatoprotective assay (APAP-exposed cells, cell viability); assay type: cell-based; conditions: tested concentration of 100 μM (method 50 μM), 20 mM APAP, Figure 3 B1
Description: HepG2 cells were seeded into 96-well tissue culture dishes at 5 × 10^3 cells/well and cultured overnight in DMEM medium supplemented with 10% FBS and 1% penicillin/streptomycin antibiotics at 37 °C in a humidified 5% CO2 incubator. The cells were then incubated with test compounds at 50 μM or extracts at 200 mg mL^–1 for 4 h before acetaminophen (APAP) exposure. After this pretreatment, the experimental group was treated with 20 mM APAP together with the compounds; the APAP-only group was treated with 20 mM neomycin and an equivalent volume of DMSO; and the control group was treated with an equivalent volume of DMSO without APAP or test compounds. After another 24 h of culture, the cell viability was then measured using the CellTiter 96 Aqueous One Solution Cell Proliferation Assay kit (Promega, USA).[12]

HaCaT cells = assay: Anti-aging bioassay (UV-B irradiation model and viability assay, MTS); assay type: cell-based, Human; conditions: samples 25 μM, 24 h
Description: Human HaCaT cells were cultured routinely in DMEM (high glucose) supplemented with 10% fetal bovine serum and 1% penicillin–streptomycin solution in a humidified incubator at 37 °C and 5% CO2.[19] All cells were cultured in culture dishes, and the medium was changed every day. The cells were cultured when the cell density reached 80%. Briefly, the HaCaT cells were cultured for 24 h after plating at a density of 4 × 10^4 cells/100 μL in 96-well plates. Subsequently, cells were irradiated according to the grouping using a 20 W UV–B lamp (SiTing, Shanghai, CN) at a distance of 10 cm for 5 s. The irradiation dose was calculated to be approximately 0.80 J cm^–2. Cells were divided into the following groups: control, UV–B alone, and UV–B + samples (25 μM). After UV–B irradiation, HaCaT cells continued to culture for 24 h with the medium containing compounds to be measured. The effects of those compounds on cell protection were determined by the MTS assay (BestBio, Shanghai, CN). After incubation, cells in each well were treated with 20 μL MTS solution for 1 h. The absorbance at 490 nm was measured directly with a microplate reader (FlexStation3, Molecular Devices, CA, US). Cell viability was expressed as the ratio percentage of MTS after deducting background value, assuming that the absorbance of control cells with deducting background absorbance was 100%.

[2] = pure compounds, acetaminophen positive control

SMILES | EC50 (COX-2; [2]) [µM] | EC50 (COX-1; [2]) [µM] | DPPH EC50 [1] | EC50 [1] [µM] | hepatoprotective effect (cell viability of HepG2 cells), in words (HepG2 cells) | COX-2 inhibition, in words (COX-2) | COX-1 inhibition, in words (COX-1) | anti-aging effect (cell viability after UV-B irradiation), in words (HaCaT cells; Figure 3 B2) | anti-aging effect (cell viability after UV-B irradiation), in words (HaCaT cells; Figure 3 B2, listed as rosaroxine C) | anti-aging effect (cell viability after UV-B irradiation), in words (HaCaT cells; Figure 3 B2, listed as 2-oxo-pomolic acid) | free radical scavenging effect in comparison to ascorbic acid, in words [1] | COX-2 EC50 (COX-2; [2]) | COX-1 EC50 (COX-1; [2])
CC(=O)Nc1ccc(O)cc1 [Acetaminphen, acetaminophen, reference compound] | 45 | > 100 |  |  |  |  |  |  |  |  |  |  | 
O=C1O[C@H]([C@@H](O)CO)C(O)=C1O [Ascorbic acid, ascorbic acid, reference compound] |  |  |  | 31.3 |  |  |  |  |  |  |  |  | 
O=c1c(O)c(-c2ccc(O)c(O)c2)oc2cc(O)cc(O)c12 [Compound 16, quercetin] | 18.8 | 33.1 |  | 13.1 | no protective effects | high inhibition rates | high inhibition rates |  |  |  | powerful free radical scavenging effects |  | 
O=C(O)c1cc(O)c(O)c(O)c1 [Compound 21, gallic acid] | 26.3 | 40 |  | 10 |  | high inhibition rates | high inhibition rates |  |  |  | powerful free radical scavenging effects |  | 
O=C(O)c1ccc(O)c(O)c1 [Compound 22, protocatechuic acid] |  |  |  | 15.2 | no protective effects |  |  | most active compounds |  |  | powerful free radical scavenging effects | no activity | no activity

Second part, led by results:

EC50 (COX-2; [2]) [µM] | EC50 (COX-1; [2]) [µM] | DPPH EC50 [1] | SMILES | EC50 [1] [µM] | hepatoprotective effect (cell viability of HepG2 cells), in words (HepG2 cells) | COX-2 inhibition, in words (COX-2) | COX-1 inhibition, in words (COX-1) | anti-aging effect (cell viability after UV-B irradiation), in words (HaCaT cells; Figure 3 B2) | anti-aging effect (cell viability after UV-B irradiation), in words (HaCaT cells; Figure 3 B2, listed as rosaroxine C) | anti-aging effect (cell viability after UV-B irradiation), in words (HaCaT cells; Figure 3 B2, listed as 2-oxo-pomolic acid) | free radical scavenging effect in comparison to ascorbic acid, in words [1] | COX-2 EC50 (COX-2; [2]) | COX-1 EC50 (COX-1; [2])
37.4 | 40.3 | no activity | CC1(C)C(O)C(=O)CC2(C)C1CCC1(C)C2CC=C2C3C(C(=O)O)(CCC(C(=O)O)C3(C)O)CCC21C (centres unmarked) [Compound 3, rosaroxine C] |  | no protective effects | significant activities; also recorded: high inhibition rates | significant activities; also recorded: high inhibition rates | most active compounds | performed well |  |  |  | 
16.6 | 28.2 | no activity | C[C@@H]1CC[C@]2(C(=O)O)CC[C@]3(C)C(=CC[C@@H]4[C@@]5(C)CC(=O)[C@H](O)C(C)(C)[C@@H]5CC[C@]43C)[C@@H]2[C@]1(C)O [Compound 5, 2-oxo-pomolic acid] |  | no protective effects | significant activities; also recorded: high inhibition rates | significant activities; also recorded: high inhibition rates | most active compounds |  | performed well |  |  | 
53.3 | 29 |  | Oc1cc(O)c2c(c1)OC(c1ccc(O)c(O)c1)C(O)C2 (centres unmarked) [Compound 15, catechin] | 13.4 | no protective effects |  | high inhibition rates |  |  |  | powerful free radical scavenging effects |  | 
